Test results taken from patent US20180325891A1, “OCTAHYDRO AZADECALIN FORMULATIONS” (Corcept Therapeutics, Inc., priority 2017, published 2018).

Test: Solubility assessment of CORT125281 in various excipients
Format: physicochemical
Experimental: The solubility of the API was assessed in Labrasol, Kolliphor RH40, Kollisolv P124 and Kolliphor HS15 in order to assess scope for formulation alternatives. […] It is probable that these would be able to be solubilized given more time/energy input.

solubility of the API in excipient (in Kolliphor RH40): < 40 mg/g
solubility of the API in excipient (in Kollisolv P124): < 40 mg/g
SMILES: Cn1ncc(S(=O)(=O)N2CC[C@H]3Cc4c(cnn4-c4ccc(F)cc4)C[C@]3(C(=O)c3cc(C(F)(F)F)ccn3)C2)n1 [CORT125281, ((4aR,8aS)-1-(4-fluorophenyl)-6-((2-methyl-2H-1,2,3-triazol-4-yl)sulfonyl)-4,4a,5,6,7,8,8a,9-octahydro-1H-pyrazolo[3,4-g]isoquinolin-4a-yl)(4-(trifluoromethyl)pyridin-2-yl)methanone]
solubility of the API in excipient, visual and microscopic analysis (Kolliphor HS15 mix): visibly clear, but upon microscopic analysis, they were found to contain a small number of API crystals
solubility of the API in excipient, visual and microscopic analysis (Labrasol mix): visibly clear, but upon microscopic analysis, they were found to contain a small number of API crystals
